Literature values as cited in patent US7572882B2 (priority 2000, dated 2009).

Key:
[1] = test system: HLA-DR alleles
[2] = test system: T helper lymphocytes; conditions: regardless of HLA type

Substance: aKXVAAWTLKAAa
- binding to HLA-DR alleles [1]: bind to most HLA-DR alleles
- stimulation of the response of T helper lymphocytes [2]: stimulate the response of T helper lymphocytes from most individuals
